Earlier results on one molecule are cited in US20230416754A1, “SINA MOLECULES, METHODS OF PRODUCTION AND USES THEREOF” (PHYZAT BIOPHARMACEUTICALS, LDA, priority 2020, published 2023).

Read-outs that look alike come from different tables or passages of the source.

This data set concerns mice.

Consider `CC(C)(C)NC[C@H](O)COc1nsnc1N1CCOCC1` [Timolol, timolol], for which the IOP result runs as follows: (reserpine-treated animals) “did not significantly affect IOP”; (saline control treated mice) “significantly reduced IOP”.
